Data from patent US20160264593A1 (priority 2013, published 2016).
Where two headings read alike, the source gives them in different places.

Experiment: Pharmacokinetic study of 153 (and metabolite endothal) in SD rats, iv and po; plasma, liver, brain
Type: in vivo
Conditions: for 153 plasma concentration (title) / Liver concentration: PO per title; for MRT last: read-out: MRT (0-t)
Procedure: The blood, liver and brain tissue samples were collected at predetermined times from rats. […] Compound were diluted shortly before use in 4% sodium bicarbonate for sterile injection (this is the standard pediatric solution of NaHCO3 with a pH of about 8.5).
Compound 153 was freshly prepared by diluting the drugs shortly before use in 4% sodium bicarbonate for sterile injection (this is the standard pediatric solution of NaHCO3 with a pH of about 8.5). The final concentrations of 153 solutions were 0.25 mg/mL. The 153 solutions were administered via iv or po route at dose volume of 5 ml/kg according to the latest body weight. Compound 157 was freshly prepared by diluting the drugs shortly before use in 4% sodium bicarbonate for sterile injection (this is the standard pediatric solution of NaHCO3 with a pH of about 8.5). The final concentrations of […] solutions were 0.3 mg/mL. The 157 solutions were administered via iv or po route at dose volume of 5 ml/kg according to the latest body weight.
Twelve (12) female SD rats per group were dosed by iv with 153 or 157. The rats were fasted overnight prior to dosing, with free access to water. Foods were withheld for 2 hours post-dose. Blood, liver and brain tissue samples in two animals each group were collected at each time point, within 10% of the scheduled time for each time point. Two extra animals were used for analytic method development.
Blood (>0.3 mL) were collected via aorta abdominalis in anaesthetic animals into tubes containing heparin at 15 min, 1, 2, 6, 10 and 24 hours after iv administration. Liver and brain tissues were collected immediately after animal death. The liver and brain tissues were excised and rinsed with cold saline to avoid blood residual. Upon collection, each sample was placed on ice and the blood samples were subsequently centrifuged (4° C., 11000 rpm, 5 min) to separate plasma. The obtained plasma, liver and brain tissue samples were stored at −70° C. until LC-MS/MS analysis.
Two (2) female SD rats per group were dosed by po with 153 or 157. The rats were fasted overnight prior to dosing, with free access to water. Foods were withheld for 2 hours post-dose. Blood samples (>0.3 mL) were collected via aorta abdominalis in anaesthetic animals into tubes containing heparin at 30 min, 1, 2, 6, 10 and 24 hours after po administration.
To each sample, 20 μL IS-D (for blank samples, 20 μL acetonitrile:water (1:1) was added) and 300 μl acetonitrile was added. The sample mixture was vortexed for approximately 3 min. After centrifugation at 10000 rpm for 5 min at 4° C., 100 μL of the upper layer was transferred to a new tube and added 200 μL 0.4% formic acid in water (pH 6.0). The mixture was vortexed for approximately 3 min before injected onto the LC/MS/MS system for analysis.
On the day of the assay, the frozen liver and brain samples were thawed unassisted at room temperature. An about 200 mg weighed sample of each thawed tissue was placed into a plastic tube with water (0.6 mL) to facilitate homogenization. Tissue processing was conducted using a homogenizer for approximately 1 min, 200 μl homogenate was transferred into a fresh Eppendorf tube. To each tube, 50 μL IS-D was added and mixed. Then 600 μl acetonitrile was added and the sample mixture was vortexed for approximately 3 min. After centrifugation at 10000 rpm for 5 min at 4° C., 400 μL of the upper layer was transferred to a new tube and evaporate the supernatant to dryness at 35° C. Reconstitute the residue with 200 μL of 0.4% formic acid in water (pH6.0), and vortex for 3 min, submit for LC-MS/MS analysis.
Frozen unknown plasma samples were completely thawed at room temperature and vortexed thoroughly. With a pipette, 50 μL of plasma was transferred into a 2.0 mL Eppendorf tube. 50 μL of 0.1N HCl and 800 μL ethyl acetate were added into each sample. The sample mixture was vortexed for approximately 3 min.

[1] = female, SD, rat, in vivo, iv, 1.25 mg/kg, 153 in plasma, IV 1.25 mg/kg, Mean
[2] = female, SD, rat, in vivo, iv, 1.25 mg/kg, 153 in plasma, IV 1.25 mg/kg, rat 1
[3] = female, SD, rat, in vivo, iv, 1.25 mg/kg, 153 in plasma, IV 1.25 mg/kg, rat 2

For CCCOC(=O)C1C2CCC(O2)C1C(=O)N1CCN(C)CC1 (stereo not drawn) [Compound 153, 3-(4-Methylpiperazine-1-carbonyl)-7-oxa-bicyclo[2,2,1]heptane-2-carboxylic acid propyl ester], the F (153, PO 1.25 mg/kg vs IV 1.25 mg/kg, Mean) was 55.41%, the “conversion to endothal in the plasma (statement)” value (153 administered to rats) was “converted to endothal” and the Tmax (153 in plasma, IV 1.25 mg/kg, Mean) was 15 min. The Tmax (153 in plasma, IV 1.25 mg/kg, rat 2) was 15 min, the Tmax (153 in plasma, PO 1.25 mg/kg, rat 2) was 30 min and the “AUClast of 153 in brain” value (153 iv 1.25 mg/kg) was 39.4 ng·h/g. The “AUClast of 153 in liver” value (153 iv 1.25 mg/kg) was 500 ng·h/g, the “oral availability of 153 (statement)” value (153 po 1.25 mg/kg) was “orally available” and the AUC (Brain, 1.25 mg/kg IV, Mean) was 39.4 ng·h/mL. For the same molecule, the “AUC0-∞” value (Brain, 1.25 mg/kg IV, Mean) was 39.35 ng·h/mL, the Tmax (Brain, 1.25 mg/kg IV, Mean) was 15 min and the AUC (Brain, 1.25 mg/kg IV, rat 1) was 39.2 ng·h/mL. The “AUC0-∞” value (Brain, 1.25 mg/kg IV, rat 1) was 39.2 ng·h/mL, the Tmax (Brain, 1.25 mg/kg IV, rat 1) was 15 min and the AUC (Brain, 1.25 mg/kg IV, rat 2) was 39.5 ng·h/mL. For the same molecule, the “AUC0-∞” value (Brain, 1.25 mg/kg IV, rat 2) was 39.5 ng·h/mL, the Tmax (Brain, 1.25 mg/kg IV, rat 2) was 15 min and the AUC (Liver, 1.25 mg/kg IV, Mean) was 500 ng·h/mL. For the same molecule, the “AUC0-∞” value (Liver, 1.25 mg/kg IV, Mean) was 500 ng·h/mL, the AUC (Liver, 1.25 mg/kg IV, rat 1) was 547 ng·h/mL and the “AUC0-∞” value (Liver, 1.25 mg/kg IV, rat 1) was 547 ng·h/mL. The Tmax (Liver, 1.25 mg/kg IV, rat 1) was 15 min, the AUC (Liver, 1.25 mg/kg IV, rat 2) was 453 ng·h/mL and the “AUC0-∞” value (Liver, 1.25 mg/kg IV, rat 2) was 453 ng·h/mL. The Tmax (Liver, 1.25 mg/kg IV, rat 2) was 15 min, the “153 plasma concentration (title) / Liver concentration” value (1.25 mg/kg, 6 hr, Rat 1) was “BLQ” and the “153 plasma concentration (title) / Liver concentration” value (1.25 mg/kg, 6 hr, Rat 2) was “BLQ”. The “153 plasma concentration (title) / Liver concentration” value (1.25 mg/kg, 10 hr, Rat 1) was “BLQ”, the Tmax (female, SD, in vivo, 153 in plasma, IV 1.25 mg/kg, rat 1, read-out: Tmax) was 15 min and the Tmax (female, SD, in vivo, 153 in plasma, PO 1.25 mg/kg, rat 1, read-out: Tmax) was 30 min. The AUC(0-inf) [1] was 296 ng·h/mL, the AUC (female, SD, rat, in vivo, iv, 1.25 mg/kg, 153 in plasma, IV 1.25 mg/kg, Mean, read-out: AUC) was 295 ng·h/mL and the Cmax (female, SD, rat, in vivo, iv, 1.25 mg/kg, 153 in plasma, IV 1.25 mg/kg, Mean, read-out: Cmax) was 557 ng/mL. It also gave an MRT last [1] of 39.4 min, a half-life (female, SD, rat, in vivo, iv, 1.25 mg/kg, 153 in plasma, IV 1.25 mg/kg, Mean, read-out: T1/2 (converted)) of 55.3 min and an AUC(0-inf) [2] of 303 ng·h/mL. The AUC (female, SD, rat, in vivo, iv, 1.25 mg/kg, 153 in plasma, IV 1.25 mg/kg, rat 1, read-out: AUC) was 303 ng·h/mL, the Cmax (female, SD, rat, in vivo, iv, 1.25 mg/kg, 153 in plasma, IV 1.25 mg/kg, rat 1, read-out: Cmax) was 563 ng/mL and the MRT last [2] was 40 min. The half-life (female, SD, rat, in vivo, iv, 1.25 mg/kg, 153 in plasma, IV 1.25 mg/kg, rat 1, read-out: T1/2 (converted)) was 54.4 min, the AUC(0-inf) [3] was 288 ng·h/mL and the AUC (female, SD, rat, in vivo, iv, 1.25 mg/kg, 153 in plasma, IV 1.25 mg/kg, rat 2, read-out: AUC) was 288 ng·h/mL. It also gave a Cmax (female, SD, rat, in vivo, iv, 1.25 mg/kg, 153 in plasma, IV 1.25 mg/kg, rat 2, read-out: Cmax) of 550 ng/mL, an MRT last [3] of 38.8 min and a half-life (female, SD, rat, in vivo, iv, 1.25 mg/kg, 153 in plasma, IV 1.25 mg/kg, rat 2, read-out: T1/2 (converted)) of 56 min. It also gave a half-life (female, SD, rat, in vivo, iv, 1.25 mg/kg, 153 iv 1.25 mg/kg, read-out: T1/2 of 153 in brain (converted)) of 35.8 min, a half-life (female, SD, rat, in vivo, iv, 1.25 mg/kg, 153 iv 1.25 mg/kg, read-out: T1/2 of 153 in liver (converted)) of 37.6 min and a half-life (female, SD, rat, in vivo, iv, 1.25 mg/kg, 153 iv 1.25 mg/kg, read-out: T1/2 of 153 in plasma (converted)) of 55.3 min. It also gave a Cmax (female, SD, rat, in vivo, iv, 1.25 mg/kg, 153 iv 1.25 mg/kg, read-out: mean Cmax of 153 in brain) of 42.7 ng/g, a Cmax (female, SD, rat, in vivo, iv, 1.25 mg/kg, 153 iv 1.25 mg/kg, read-out: mean Cmax of 153 in liver) of 762 ng/g and a Cmax (female, SD, rat, in vivo, iv, 1.25 mg/kg, 153 iv 1.25 mg/kg, read-out: mean Cmax of 153 in plasma) of 557 ng/mL. It also gave a Cmax (female, SD, rat, in vivo, iv, 1.25 mg/kg, Liver, 1.25 mg/kg IV, rat 1, read-out: Cmax) of 872 ng/g, an MRT last (female, SD, rat, in vivo, iv, 1.25 mg/kg, Liver, 1.25 mg/kg IV, rat 1) of 44.7 min and a half-life (female, SD, rat, in vivo, iv, 1.25 mg/kg, Liver, 1.25 mg/kg IV, rat 1, read-out: T1/2 (converted)) of 36.5 min. For the same molecule, the Cmax (female, SD, rat, in vivo, iv, 1.25 mg/kg, Liver, 1.25 mg/kg IV, rat 2, read-out: Cmax) was 652 ng/g, the MRT last (female, SD, rat, in vivo, iv, 1.25 mg/kg, Liver, 1.25 mg/kg IV, rat 2) was 49.5 min and the concentration at 0.25 h (female, SD, rat, in vivo, iv, 1.25 mg/kg, iv 1.25 mg/kg, Mean, read-out: 153 brain concentration) was 42.7 ng/g. The concentration at 0.25 h (female, SD, rat, in vivo, iv, 1.25 mg/kg, iv 1.25 mg/kg, Mean, read-out: 153 liver concentration) was 762 ng/g, the concentration at 0.25 h (female, SD, rat, in vivo, iv, 1.25 mg/kg, iv 1.25 mg/kg, Mean, read-out: 153 plasma concentration) was 557 ng/mL and the concentration at 0.25 h (female, SD, rat, in vivo, iv, 1.25 mg/kg, iv 1.25 mg/kg, Rat 1, read-out: 153 brain concentration) was 45 ng/g. The concentration at 0.25 h (female, SD, rat, in vivo, iv, 1.25 mg/kg, iv 1.25 mg/kg, Rat 1, read-out: 153 liver concentration) was 872 ng/g, the concentration at 0.25 h (female, SD, rat, in vivo, iv, 1.25 mg/kg, iv 1.25 mg/kg, Rat 1, read-out: 153 plasma concentration) was 563 ng/mL and the concentration at 0.25 h (female, SD, rat, in vivo, iv, 1.25 mg/kg, iv 1.25 mg/kg, Rat 2, read-out: 153 brain concentration) was 40.3 ng/g. For the same molecule, the concentration at 0.25 h (female, SD, rat, in vivo, iv, 1.25 mg/kg, iv 1.25 mg/kg, Rat 2, read-out: 153 liver concentration) was 652 ng/g, the concentration at 0.25 h (female, SD, rat, in vivo, iv, 1.25 mg/kg, iv 1.25 mg/kg, Rat 2, read-out: 153 plasma concentration) was 550 ng/mL and the concentration at 1 h (female, SD, rat, in vivo, iv, 1.25 mg/kg, iv 1.25 mg/kg, 1 hr, Mean, read-out: 153 brain concentration) was 14.1 ng/g.
